Each structure is given as a SMILES string. Entries after “also recorded” stand apart in the source; their conditions may differ.

One data set concerns mouse liver. The procedure: (§1) Tamoxifen was the first FDA-approved drug for breast cancer patients with positively expressed ER. […] We further tested whether α-anordrin or β-anordrin eliminates tamoxifen-induced EEC mitosis. […] Mice were then sacrificed to harvest uterus and liver. Uterine and liver tissues were fixed.
(§2) The tissue of mice was excised by surgery and fixed using 4% paraformaldehyde in 1×DPBS (Beijing Solar Bioscience & Technology co., Ltd). Paraffin section preparation and HE staining was performed by GLP laboratory of BK animal model, Inc.
30-50 mg of mouse liver was excised by surgery and homogenized in 1 ml Cholroform:Methanol (2:1) mixture and extracted using 0.5 ml ddH2O. The organic phase was transferred to new tubes and air dried. The amount of TG was measured using kits following manufacturer's instructions. The error was corrected by using internal standard controls.

A further data set deals with mice uterus EECs. On the procedure:
as §1, §2
EEC height was measured from 20-200× magnification EEC images of Paraffin-embedded H&E mice uterus sections.

The test system of another data set is mouse vagina. Put plainly: Anastrozole-induced vagina atrophy in mice (vagina wet mass, H&E sections). The class given is in vivo. As to conditions: food containing drug plus equal amount of anastrozole, 6 months. From the text: (§3) Aromatase inhibitors were administrated to ER positive breast in post-menopausal women. […] It was administrated to ER positive breast cancer in post menopausal women. […] Vulvovagina atrophy usually results in infection of vagina and urinary tract. As an example, we tested whether α-anordrin or β-anordrin eliminates anastrozole-induced uterus and vulvovagina atrophy, and osteoporosis. […] Mice were then sacrificed to harvest vagina, leg and spine bone. The tissues were fixed in paraformaldehyde.
(§4) Vagina was cut at the middle site. Both uterine site and vulvovaginal site were embedded in paraffin at the same direction for H&E section preparation. The thickness of vulvovaginal wall was measured from 40× magnification images of Paraffin-embedded H&E mice vagina sections.

In a further data set the test system is mice bone. In words: Anastrozole-induced osteoporosis in mice by micro-CT (BMD, BV/TV, Tb.N). In kind it is in vivo. As to conditions: for inhibition of anastrozole-induced osteoporosis (micro-CT): food containing drug plus equal amount of anastrozole, 6 months.
Text: as §3
(§5) Thighbone was fixed in 1×DPBS containing 3% formaldehyde for two weeks. The fixation solution was exchanged after one week. The density of thighbone was measured by Siemens Inveon Micro-CT. Inveon Research Workplace (IRW) was used to analyze the HU2000 value at the following measurement conditions: 80 KVP, […], 1500 ms exposure time; CCD Readout installation: 2048axial, 2048 binning; FOV Transaxial: 19.03 mm, axial: 19.03 mm, pixels size: 9.29 μm.

Data set [1] has as its system OVX female mice. Put plainly: OVX mice: TG accumulation in liver (H&E sections, liver TG). In kind it is in vivo. As to conditions: given by food. On the procedure:
(§6) In this Example, studies have been shown the estrogenic effects of α- and β-anordrins on estrogen-modulated metabolic signaling and tissue atrophy. The ovaries of 7 week old mice were surgically excised. One week post surgery, the mice were given isoflavone, α-anordrin or β-anordrin by food. Body mass, blood glucose and food intake were measured monthly. After three months. Mice were sacrificed. The leg and spine bone, liver, uterus and vagina were harvested.
(§7) The ovaries of 6 week old mice were excised by surgery. 3 days post surgery drugs were administered by gastric tract injection every day or mixed with food.
The error was corrected by using internal standard controls.

The subject of data set [2] is OVX female mice. Put plainly: OVX mice: vulvovagina atrophy (vagina wet mass, H&E sections, thickness of vulvovagina wall). The class given is in vivo. As to conditions: given by food, three months. The procedure: as §6, §7, §4
Data set [3] has as its system OVX female mice. Put plainly: OVX mice: osteoporosis by micro-CT (BMD, BV/TV). The class given is in vivo. As to conditions: for prevention of osteoporosis (micro-CT): OVX mice, given by food, three months. The procedure:
as §6, §7, §5

The test system of data set [4] is endometrial epithelial cell (EEC). As to conditions: earlier finding of the applicants, no method given here (cf. reference 21); cited from earlier work.
In data set [5] the test system is OVX female mice. Put plainly: OVX mice: uterus atrophy (uterine wet mass, H&E sections). The class given is in vivo. As to conditions: three months. The procedure:
as §6, §7

The subject of data set [6] is OVX female mice. Put plainly: OVX mice: blood glucose, blood TG, body mass and food uptake. In kind it is in vivo. On the procedure: as §6
glucose concentration in medium or total blood from mouse tail was measured using glucose assay kits following manufacturer's instructions (Yicheng, Beijing).
as §7

The mark [7] stands for this setting: mice, food containing drug plus tamoxifen, 6 months.
Where [8] appears, read: combination with equal amount of anastrozole, micro-CT.

On to `CC/C(=C(\c1ccccc1)c1ccc(OCCN(C)C)cc1)c1ccccc1` [TAM, tamoxifen, reference compound], for which the “fatty deposition in liver cells (H&E staining sections)” value in the data set on mouse liver (mouse, in vivo) is given as “high fatty deposition in liver cells”. The “appearance of EECs in H&E staining sections” value with mice uterus EECs (mouse, in vivo) is “rough and mitotic”.
As for `C#C[C@]1(OC(=O)CC)C[C@@H]2CC[C@@H]3[C@H](CC[C@@]4(C)[C@H]3CC[C@]4(C#C)OC(=O)CC)[C@@]2(C)C1` [β-anordrin, (2β,17α)-diethynyl-(2α,17β)-diol-dipropionate-A-nor-5α-androstane, reference compound], in the data set with mouse vagina, the “inhibition of anastrozole-induced vagina atrophy (vagina wet mass, H&E sections)” value is “not β-anordrin inhibited anastrozole-induced vagina atrophy”. Also, the “inhibition of anastrozole-induced osteoporosis (micro-CT)” value in the data set on mice bone is “not β-anordrin inhibited anastrozole-induced osteoporosis”. Further, in the data set on OVX female mice [1], the “amount of liver TG (liver H&E section and statistical analysis)” value was “not β-anordrin decreased the amount of liver TG”. Besides, the “inhibition of tamoxifen-induced NASH” value in the data set with mouse liver (setting [7]) is given as “not β-anordrin inhibited”. In addition, the “prevention of vulvovagina atrophy (uterus and vagina wet mass and H&E staining)” value with OVX female mice [2] is “not β-anordrin prevented vulvovagina atrophy”. Also, in the data set with OVX female mice [3], the “prevention of osteoporosis (micro-CT)” value is on record as “not 3-anordrin prevented osteoporosis”. For the same compound, the “inhibition of tamoxifen-induced EEC mitosis” value in the data set on mice uterus EECs (setting [7]) is recorded as “not β-anordrin inhibited tamoxifen-induced EEC mitosis”.
Take `C#C[C@@]1(OC(=O)CC)C[C@@H]2CC[C@@H]3[C@H](CC[C@@]4(C)[C@H]3CC[C@]4(C#C)OC(=O)CC)[C@@]2(C)C1` [anordrin]: the “elimination of tamoxifen-induced endometrial epithelial cell (EEC) mitosis” value in [4] is on record as “can eliminate tamoxifen-induced endometrial epithelial cell (EEC) mitosis”.
With `C#C[C@@]1(OC(=O)CC)CC2CCC3C(CC[C@@]4(C)C3CC[C@]4(C#C)OC(=O)CC)[C@@]2(C)C1` (single isomer, unassigned) [α-anordrin, (2α,17α)-diethynyl-(2β, 17β)-diol-dipropionate-A-nor-5α-androstane], in the data set on mouse vagina, the “inhibition of anastrozole-induced vagina atrophy (vagina wet mass, H&E sections)” value is given as “inhibits anastrozole-induced vagina atrophy”. Besides, in the data set on mice bone (setting [8]), the “inhibition of anastrozole-induced decrease of BV/TV” value is “inhibits anastrozole-induced the ratio decreasing of bone volume (BV)/bone trabecular volume (TV) (BV/TV)”, the “inhibition of anastrozole-induced decrease of bone trabecula number (Tb.N)” value was “inhibits anastrozole-induced the decreasing of bone trabecula number (Tb.N)” and the “inhibition of anastrozole-induced loss of bone mean density (BMD)” value is listed as “inhibits anastrozole-induced the loss of bone mean density (BMD)”. The “inhibition of anastrozole-induced osteoporosis (micro-CT)” value in the data set on mice bone was “inhibited anastrozole-induced osteoporosis; also recorded: inhibits anastrozole-induced osteoporosis in bone”. The “amount of liver TG (liver H&E section and statistical analysis)” value in the data set on OVX female mice [1] is listed as “decreased the amount of liver TG; also recorded: dosage dependent activity to prevent TG accumulation in liver”. Besides, in the data set on OVX female mice [2], the “prevention of vulvovagina atrophy (uterus and vagina wet mass and H&E staining)” value is on record as “prevented vulvovagina atrophy; also recorded: dosage dependent activity to prevent the atrophy of vulvovagina”. In addition, in the data set on OVX female mice [3] (OVX female mice, micro-CT), the “prevention of the decrease of bone volume (BV)/bone trabecula volume (TV) ratio (BV/TV)” value is listed as “more activity to prevent the ratio decreasing of bone volume (BV)/bone trabecula volume (TV) (BV/TV) compared with β-anordrin” and the “prevention of the loss of bone mean density (BMD)” value is listed as “more activity to prevent the loss of bone mean density (BMD) compared with β-anordrin”. Moreover, the “prevention of osteoporosis (micro-CT)” value in the data set with OVX female mice [3] was “prevented osteoporosis; also recorded: more actively to prevent the osteoporosis compared with β-anordrin”. The “prevention of uterus atrophy” value in the data set with OVX female mice [5] (OVX female mice, lower dosage, compared with sham group) was “did not prevent the uterus atrophy”. Further, the “atrophy symptom in uterus” value in the data set on OVX female mice [5] (OVX mice, given by food) is “less atrophy symptom in uterus compared with those mice treated by β-anordrin and blank groups”. The body mass result in the data set with OVX female mice [6] (after administration of drugs by food) is “less and dosage dependent activity to decrease”. Besides, in the data set with OVX female mice [6] (given by food), the blood glucose result is “less and dosage dependent activity to decrease”; the “blood triglyceride (TG)” value was “less and dosage dependent activity to decrease”.

The record behind these values is patent US12403115B2, “Asymmetric synthesis and uses of compounds in disease treatments” (Zhejiang Jiachi Development Pharmaceuticals LTD., priority 2017, dated 2025).
